Experimental data taken from US4298739A, “Novel carbostyril derivatives” (priority 1977, dated 1981).

Experiments:
rabbit platelet [1] = assay: Collagen-induced aggregation in rabbit platelets (AG-II Aggregometer); type: cell-based; design: inhibition: dose or concentration left out as unconfirmed; conditions: Oryctolagus cuniculus, Platelet, read-out: Inhibition effect on collagen induced aggregation in rabbit platelet; for inhibition at 10 µM (stock): 10^-5 mole; for inhibition at 1 µM (stock): 10^-6 mole; for inhibition at 100 µM (stock): 10^-4 mole; for inhibition at 0.1 µM (stock): 10^-7 mole
Protocol: (§1) The platelet aggregation inhibitory effect is measured by using AG-II Aggregometer (manufactured by Bryston Manufacturing Co.). The blood sample used for the test is a 1/9 (by volume) mixture of sodium citrate and whole blood collected from rabbit. Said sample is subjected to 10-minute centrifugal separation at 1,000 r.p.m. to obtain a platelet rich plasma (PRP). The thus obtained PRP is separated, and the remaining blood sample is further subjected to 15-minute centrifugal separation at 3,000 r.p.m. to obtain a platelet poor plasma (PPP).
(§2) The number of platelets in the PRP is counted by the Brecher-Clonkite Method, and the PRP is diluted with the PPP to prepare a PRP sample with platelet concentration of 300,000/mm^3 for the adenosine diphosphate (ADP)-induced aggregation test. There is also prepared a PRP sample with platelet concentration of 450,000/mm^3 for the collagen-induced aggregation test.
(§3) 0.6 ml of said PRP sample is added into 0.01 ml of a solution of a test compound of a predetermined concentration and the mixture is placed in a 37° C. thermostat for one minute. Then 0.07 ml of an ADP or collagen solution is added to the mixture. Transmittance of this mixture is determined and the change of transmittance is recorded by using the aggregometer at stirrer speed of 1,100 r.p.m. In this test, Auren Beronal buffer (pH 7.35) is used for the preparation of the ADP or collagen solution. ADP is adjusted to a concentration of 7.5×10^-5 M, and the collagen solution is prepared by triturating 100 mg of collagen with 5 ml of said buffer and the supernatant is used as collagen inducer. Adenosine and acetylsalicylic acid are used as controls for the ADP-induced aggregation test and the collagen-induced aggregation test, respectively. The platelet aggregation inhibitory effect is measured in terms of percent inhibition with respect to the aggregation rate of the controls. The aggregation rate is calculated from the following formula:
(§4) Aggregation rate=(c-a)/(b-a)×100
(§5) b: transmittance of PRP containing a test compound and an aggregation inducer
(§6) The inhibitory effect of the tested compounds on collagen-induced aggregation in rabbit platelets is shown in Table 1, and such effect on ADP-induced aggregation is shown in Table 2. The compounds tested are as follows.

rabbit platelet [2] = assay: ADP-induced aggregation in rabbit platelets (AG-II Aggregometer); type: cell-based; design: inhibition: dose or concentration left out as unconfirmed; conditions: Oryctolagus cuniculus, Platelet, read-out: Inhibition effect on ADP-induced aggregation in rabbit platelet; for inhibition at 10 µM (stock): 10^-5 mole; for inhibition at 1 µM (stock): 10^-6 mole; for inhibition at 100 µM (stock): 10^-4 mole
Protocol: as §1, §2, §3, §4, §5, §6

[3] = Acute toxicity test, oral administration to mice; type: in vivo; conditions: mouse, in vivo, Male mice
Protocol: The test compounds were administered orally to the mice and LD50 (mg/kg) of the compounds was determined.

Compound | inhibition at 10 µM (stock) (rabbit platelet [1]) | inhibition at 1 µM (stock) (rabbit platelet [1]) | inhibition at 10 µM (stock) (rabbit platelet [2]) | inhibition at 1 µM (stock) (rabbit platelet [2]) | LD50 [3] | inhibition at 100 µM (stock) (rabbit platelet [1]) | inhibition at 100 µM (stock) (rabbit platelet [2]) | other results
CN(C(=O)CCCOc1ccc2[nH]c(=O)ccc2c1)C1CCC(O)CC1 (stereo not drawn) [compound 2, 6-{3-[N-Methyl-N-(4-hydroxycyclohexyl)aminocarbonyl]propoxy}carbostyril] | 100% | 89.7% | 90.3% | 54.3% | > 1000 mg/kg | – | – | –
COc1ccc(CCN(C)C(=O)CCCOc2ccc3[nH]c(=O)ccc3c2)cc1OC [compound 4, 6-{3-[N-Methyl-N-(2-3',4'-dimethoxyphenylethyl)aminocarbonyl]propoxy}carbostyril] | 46.5% | 19.2% | 16.1% | 6.9% | > 1000 mg/kg | 82.9% | 70.4% | –
O=C(CCCOc1ccc2[nH]c(=O)ccc2c1)N(Cc1ccccc1)C1CCCCC1 [compound 5, 6-{3-(N-Cyclohexyl-N-benzylaminocarbonyl)propoxy]carbostyril] | 91.8% | 88.4% | 90.7% | 61.2% | > 1000 mg/kg | – | – | inhibition at 0.1 µM (stock) (rabbit platelet [1]): 30.6%; inhibition at 0.1 µM (stock) (rabbit platelet [2]; 10^-7 mole): 18.9%
CN(C(=O)CCCOc1ccc2[nH]c(=O)ccc2c1Cl)C1CCCCC1 [compound 6, 5-Chloro-6-[3-(N-methyl-N-cyclohexylaminocarbonyl)propoxy]carbostyril] | 53.3% | 12.3% | 5.4% | – | > 1000 mg/kg | 100% | 87.2% | –
O=C1CCc2cc(OCCCC(=O)N(C3CCCCC3)C3CCCCC3Cl)ccc2N1 (stereo not drawn) [compound 7, 6-{3-[N-Cyclohexyl-N-(2-chlorocyclohexyl)aminocarbonyl]propoxy}-3,4-dihydrocarbostyril] | – | – | – | – | > 1000 mg/kg | – | – | inhibition (rabbit platelet [1]): 89.9%; inhibition (rabbit platelet [2]): 82.9%
CN(C(=O)CC(O)COc1ccc2[nH]c(=O)ccc2c1)C1CCCCC1 (stereo not drawn) [compound 8, 6-[2-Hydroxy-3-(N-methyl-N-cyclohexylaminocarbonyl)propoxy]carbostyril] | 86.8% | 2.9% | 41.1% | – | > 1000 mg/kg | 85.5% | 91.7% | –
CC(COc1ccc2[nH]c(=O)ccc2c1)CC(=O)N(C)C1CCCCC1 (stereo not drawn) [compound 9, 6-[3-(N-Methyl-N-cyclohexylaminocarbonyl)-2-methylpropoxy]carbostyril] | 100% | 100% | 70.4% | 5.8% | > 1000 mg/kg | 100% | 92.8% | inhibition at 0.1 µM (stock) (rabbit platelet [1]): 11.2%
CN(C(=O)CCCOc1ccc(O)c2c1CCC(=O)N2)C1CCCCC1 [compound 10, 8-Hydroxy-5-[3-(N-Methyl-N-cyclohexylaminocarbonyl)propoxy]-3,4-dihydrocarbostyril] | 29.3% | – | 18.4% | – | > 1000 mg/kg | 91.8% | 53.9% | –
COc1ccc(CCN(Cc2ccccc2)C(=O)CCCOc2ccc3c(c2)CCC(=O)N3)cc1OC [compound 11, 6-{3-[N-Benzyl-N-(2-3',4'-dimethoxyphenylethyl)aminocarbonyl]propoxy}-3,4-dihydrocarbostyril] | 75.8% | 28.1% | 12.5% | 16.9% | > 1000 mg/kg | 88.1% | 87.5% | –
CCN(C(=O)CCCOc1c(Cl)cc(Cl)c2c1CCC(=O)N2)c1ccccc1 [compound 12, 6,8-Dichloro-5-[3-(N-ethylanilinocarbonyl)propoxy]-3,4-dihydrocarbostyril] | 65.2% | 33.8% | 33.8% | 12.7% | > 1000 mg/kg | 82.6% | 71.7% | –
O=C(CCCOc1ccc2[nH]c(=O)ccc2c1)NC1CCCCC1 [compound 13, 6-[3-(N-Cyclohexylaminocarbonyl)propoxy]carbostyril] | 45.8% | 23.3% | 24.8% | 18% | > 1000 mg/kg | 87.5% | 39.6% | –
C=CCN(C(=O)CCCOc1ccc2c(c1)CCC(=O)N2)C1CCCCC1 [compound 14, 6-[3-(N-Allyl-N-cyclohexylaminocarbonyl)propoxy]-3,4-dihydrocarbostyril] | 42.3% | 15.7% | 25.7% | 15.1% | > 1000 mg/kg | 82.4% | 41.3% | –
CN(C(=O)CCCOc1ccc2c(c1)CCC(=O)N2)C1CCCCC1 [compound 15, 6-[3-(N-Methyl-N-cyclohexylaminocarbonyl)propoxy]-3,4-dihydrocarbostyril] | 92.6% | 34.1% | 26.8% | 10.8% | > 1000 mg/kg | 94% | 88.3% | –
CCOC(=O)C(C)Oc1ccc2c(c1)CCC(=O)N2 (stereo not drawn) [compound 25, 6-(1-Ethoxycarbonylethoxy)-3,4-dihydrocarbostyril, reference compound] | – | – | – | – | > 1000 mg/kg | – | – | –
CCOC(=O)C(C)Oc1ccc2[nH]c(=O)ccc2c1 (stereo not drawn) [compound 26, 6-(1-Ethoxycarbonylethoxy)carostyril, reference compound] | – | – | – | – | > 1000 mg/kg | – | – | –
CCOC(=O)C(C)Oc1ccc2c(c1)CCC(=O)N2C (stereo not drawn) [compound 27, 1-Methyl-6-(1-ethoxycarbonylethoxy)-3,4-dihydrocarbostyril, reference compound] | – | – | – | – | 800 to 1000 mg/kg | – | – | –
CCOC(=O)C(C)Oc1ccc2c(c1)NC(=O)CC2 (stereo not drawn) [compound 28, 7-(1-ethoxycarbonylethoxy)-3,4-dihydrocarbostyril, reference compound] | – | – | – | – | > 1000 mg/kg | – | – | –
CCCCCOC(=O)C(C)Oc1ccc2c(c1)CCC(=O)N2 (stereo not drawn) [compound 30, 6-(1-Amyloxycarbonylethoxy)-3,4-dihydrocarbostyril, reference compound] | – | – | – | – | > 1000 mg/kg | – | – | –
CC(C)OC(=O)C(C)Oc1ccc2[nH]c(=O)ccc2c1 (stereo not drawn) [compound 31, 6-(1-Isopropoxycarbonylethoxy)carbostyril, reference compound] | – | – | – | – | 900 to 1000 mg/kg | – | – | –
CCOC(=O)CCCOc1cccc2c1CCC(=O)N2 [compound 32, 5-(3-Ethoxycarbonylpropoxy)-3,4-dihydrocarbostyril, reference compound] | – | – | – | – | > 1000 mg/kg | – | – | –
CCCCCOC(=O)CCCOc1ccc2c(c1)CCC(=O)N2 [compound 33, 6-(3-Amyloxycarbonylpropoxy)-3,4-dihydrocarbostyril, reference compound] | – | – | – | – | > 1000 mg/kg | – | – | –
CCOC(=O)CCCCCCOc1ccc2c(c1)CCC(=O)N2 [compound 35, 6-(6-Ethoxycarbonylhexyloxy)-3,4-dihydrocarbostyril, reference compound] | – | – | – | – | 750 to 1000 mg/kg | – | – | –
O=C(O)CCCCCCOc1ccc2c(c1)CCC(=O)N2 [compound 36, 6-(6-Carboxyhexyloxy)-3,4-dihydrocarbostyril, reference compound] | – | – | – | – | > 1000 mg/kg | – | – | –
CCOC(=O)C(C)Oc1cccc2c1NC(=O)CC2 (stereo not drawn) [compound 37, 8-(1-Ethoxycarbonylethoxy)-3,4-dihydrocarbostyril, reference compound] | – | – | – | – | 900 to 1000 mg/kg | – | – | –
CC(=O)Oc1ccccc1C(=O)O [compound 46, Aspirin, reference compound] | – | – | 0% | – | – | – | 7% | inhibition (rabbit platelet [1]): 9%
